In one assay the target is T1, Human IDO1 (Homo sapiens, UniProt P14902).
T1 construct: expressed in transfected cells; host or cells: HEK293
Briefly: IDO Kynurenine Assay with Human IDO1/HEK293 Cells. In kind it is cell-based. As to conditions: read-out: HEK human IDO-1 (IC50). In outline:
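HEK293 cells stably expressing human IDO1, in phenol red-free RPMI/10% FBS, exposed to compound for 20 h at 37 °C. Stopped with 0.2% TCA (50 °C, 30 min); kynurenine in supernatant detected with Ehrlich reagent, absorbance 490 nm.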

In the next assay the target is IDO (Homo sapiens, UniProt P14902). The experiment in a line: LLE_IDO_ABS_DR (IDO assay).
Chain of IDO (P14902 whole entry): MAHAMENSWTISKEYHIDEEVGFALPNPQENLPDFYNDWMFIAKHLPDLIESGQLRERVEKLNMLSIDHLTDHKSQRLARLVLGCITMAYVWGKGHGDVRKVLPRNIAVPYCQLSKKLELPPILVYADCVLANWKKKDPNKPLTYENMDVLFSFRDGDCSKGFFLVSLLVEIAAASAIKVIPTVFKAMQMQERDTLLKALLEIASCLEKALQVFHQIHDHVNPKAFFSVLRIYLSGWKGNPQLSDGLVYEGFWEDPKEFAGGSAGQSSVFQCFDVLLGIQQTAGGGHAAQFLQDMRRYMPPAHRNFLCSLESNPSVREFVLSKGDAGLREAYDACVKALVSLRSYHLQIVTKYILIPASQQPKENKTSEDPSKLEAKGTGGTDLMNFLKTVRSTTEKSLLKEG

T1 sequence (P14902 whole entry): as above

`Cc1ccc(NC(=O)Nc2cc(-c3cccc(F)c3C(=O)O)ccc2N(CC(C)C)CC(C)C)cc1` [Example 150, 4′-(diisobutylamino)-3-fluoro-3′-(3-p-tolylureido)biphenyl-2-carboxylic acid]: the values for the IC50 at Human IDO1 and on IDO were 60 nM and 40 nM, respectively.
As to `COCCN(Cc1ccc(Cl)cc1)c1ccc(-c2cc(F)ccc2C(=O)O)cc1NC(=O)Nc1ccc(C)cc1` [Example 193, 4′-((4-chlorobenzyl)(2-methoxyethyl)amino)-5-fluoro-3′-(3-(p-tolyl)ureido)-[1,1′-biphenyl]-2-carboxylic acid], the IC50 on Human IDO1 was found to be 70 nM; at IDO, 30 nM.
For `Cc1ccc(NC(=O)Nc2cc(-c3cc(F)ccc3C(=O)O)c(F)cc2N(CC(C)C)C2CCCCC2)cc1` [Example 231] the same measures were 2.13 nM and 2.73 nM.
Regarding `CC(C)CN(Cc1ccccc1)c1ccc(-c2ccccc2-c2nnn[nH]2)cc1NC(=O)Nc1ccc(OC(F)(F)F)cc1` [Example 290, 1-(4-(Benzyl(isobutyl)amino)-2′-(1H-tetrazol-5-yl)-[1,1′-biphenyl]-3-yl)-3-(4-(trifluoromethoxy)phenyl)urea], the figures for the IC50 at Human IDO1 and on IDO were 50 nM and 30 nM, respectively.
Taken in the same sequence, the figures for `CC(C)CN(Cc1ccccc1)c1ccc(-c2ccccc2-c2nnn[nH]2)cc1NC(=O)Nc1ccc(C2CC2)cc1` [Example 291, 1-(4-(Benzyl(isobutyl)amino)-2′-(1H-tetrazol-5-yl)-[1,1′-biphenyl]-3-yl)-3-(4-cyclopropylphenyl)urea] were 1830 nM and 90 nM.
Consider `O=C(Nc1ccc(C2CC2)cc1)Nc1cc(-c2ccccc2-c2nnn[nH]2)ccc1N(CCC(F)(F)F)Cc1ccc(F)cc1C(F)(F)F` [Example 299, 1-(4-cyclopropylphenyl)-3-(4-((4-fluoro-2-(trifluoromethyl)benzyl) (3,3,3-trifluoropropyl)amino)-2′-(1H-tetrazol-5-yl)-[1,1′-biphenyl]-3-yl)urea], for which the IC50 is 50 nM on Human IDO1 and 20 nM at IDO.
For `O=C(Nc1ccc(C(F)(F)F)cc1F)Nc1cc(-c2ccccc2-c2nnn[nH]2)ccc1N(CCC(F)(F)F)Cc1ccc(OC(F)(F)F)cc1` [Example 301, 1-(2′-(1H-tetrazol-5-yl)-4-((4-(trifluoromethoxy)benzyl)(3,3,3-trifluoropropyl)amino)-[1,1′-biphenyl]-3-yl)-3-(2-fluoro-4-(trifluoromethyl)phenyl)urea] the same measures were 7.87 nM and 2.85 nM.
Taken in the same sequence, the figures for `O=C(Nc1ccc(C2CC2)cc1)Nc1cc(-c2ccccc2-c2nnn[nH]2)ccc1N(CCC(F)(F)F)Cc1ccc(OC(F)(F)F)cc1` [Example 302, 1-(2′-(1H-tetrazol-5-yl)-4-((4-(trifluoromethoxy)benzyl)(3,3,3-trifluoropropyl)amino)-[1,1′-biphenyl]-3-yl)-3-(4-cyclopropylphenyl)urea] were 5.53 nM and 3.26 nM.
For `O=C(Nc1ccc(C(F)(F)F)cc1F)Nc1cc(-c2ccccc2-c2nnn[nH]2)ccc1N(CCC(F)(F)F)Cc1ccccn1` [Example 303, 1-(2-fluoro-4-(trifluoromethyl)phenyl)-3-(4-((pyridin-2-ylmethyl)(3,3,3-trifluoropropyl)amino)-2′-(1H-tetrazol-5-yl)-[1,1′-biphenyl]-3-yl)urea] the same measures were 280 nM and 50 nM.
As for `Cc1ccc(NC(=O)Nc2cc(-c3ccccc3-c3nnn[nH]3)ccc2N2CC3CC2CN3Cc2ccccc2)cc1` (stereo not shown) [Example 317, 1-(4-(5-benzyl-2,5-diazabicyclo[2.2.1]heptan-2-yl)-2′-(1H-tetrazol-5-yl)-[1,1′-biphenyl]-3-yl)-3-(p-tolyl)urea], the IC50 amounted to 50 nM at Human IDO1 and 30 nM against IDO.
Taken in the same sequence, the figures for `O=C(Nc1ccc(F)cc1F)Nc1cc(-c2ccccc2-c2nnn[nH]2)ccc1N(CCCC(F)(F)F)Cc1ccc(Cl)cc1` [Example 319, 1-(4-((4-chlorobenzyl)(4,4,4-trifluorobutyl)amino)-2′-(1H-tetrazol-5-yl)-[1,1′-biphenyl]-3-yl)-3-(2,4-difluorophenyl) urea] were 20 nM and 20 nM.
Taken in the same sequence, the figures for `O=C(Nc1ccc(OC(F)(F)F)cc1)Nc1cc(-c2ccccc2-c2nnn[nH]2)ccc1N(CCCC(F)(F)F)Cc1ccc(Cl)cc1` [Example 322, 1-(4-((4-chlorobenzyl)(4,4,4-trifluorobutyl)amino)-2′-(1H-tetrazol-5-yl)-[1,1′-biphenyl]-3-yl)-3-(4-(trifluoromethoxy)phenyl)urea] were 220 nM and 60 nM.
On to `O=C(Nc1ccc(F)cc1F)Nc1cc(-c2ccccc2-c2nnn[nH]2)ccc1N(CCc1ccccc1)CCC(F)(F)F` [Example 332, 1-(2,4-difluorophenyl)-3-(4-(phenethyl(3,3,3-trifluoropropyl)amino)-2′-(1H-tetrazol-5-yl)-[1,1′-biphenyl]-3-yl) urea], for which the IC50 stood at 110 nM on Human IDO1 and 80 nM on IDO.
`O=C(Nc1ccc(F)cc1F)Nc1cc(-c2ccccc2-c2nnn[nH]2)ccc1N(CCC(F)(F)F)Cc1ccc(F)cc1C(F)(F)F` [Example 340, 1-(2,4-difluorophenyl)-3-(4-((4-fluoro-2-(trifluoromethyl)benzyl) (3,3,3-trifluoropropyl)amino)-2′-(1H-tetrazol-5-yl)-[1,1′-biphenyl]-3-yl)urea]: the IC50 at Human IDO1 turned out to be 40 nM; against IDO, 30 nM.
Taken in the same sequence, the figures for `Cc1ccc(NC(=O)Nc2cc(-c3ccccc3-c3nnn[nH]3)ccc2N(CCC(F)(F)F)Cc2ccc(OC(F)(F)F)cc2)cc1` [Example 341, 1-(2′-(1H-tetrazol-5-yl)-4-((4-(trifluoromethoxy)benzyl)(3,3,3-trifluoropropyl)amino)-[1,1′-biphenyl]-3-yl)-3-(p-tolyl)urea] were 0.845 nM and 1.73 nM.
Take `O=C(Nc1ccc(F)cc1F)Nc1cc(-c2ccccc2-c2nnn[nH]2)ccc1N(CCC(F)(F)F)Cc1ccccn1` [Example 344, 1-(2,4-difluorophenyl)-3-(4-((pyridin-2-ylmethyl)(3,3,3-trifluoropropyl)amino)-2′-(1H-tetrazol-5-yl)-[1,1′-biphenyl]-3-yl) urea]: the IC50 at Human IDO1 was 50 nM; on IDO, 30 nM.
For `O=C(Nc1ccc(C2CC2)cc1)Nc1cc(-c2ccccc2-c2nn[nH]n2)ccc1N1CC2CC1CN2Cc1ccccc1` (stereo not shown) [Example 348, 1-(4-(5-benzyl-2,5-diazabicyclo[2.2.1]heptan-2-yl)-2′-(2H-tetrazol-5-yl)-[1,1′-biphenyl]-3-yl)-3-(4-cyclopropylphenyl)urea] the same measures were 10 nM and 10 nM.
Taken in the same sequence, the figures for `O=C(Nc1ccc(C2CC2)cc1)Nc1cc(-c2ccccc2-c2nnn[nH]2)ccc1N(CCCC(F)(F)F)Cc1ccc(Cl)cc1` [Example 349, 1-(4-((4-chlorobenzyl)(4,4,4-trifluorobutyl)amino)-2′-(1H-tetrazol-5-yl)-[1,1′-biphenyl]-3-yl)-3-(4-cyclopropylphenyl)urea] were 130 nM and 7.49 nM.
For `O=C(Nc1ccc(C2CC2)c(F)c1)Nc1cc(-c2ccccc2-c2nnn[nH]2)ccc1N(CCC(F)(F)F)Cc1ccc(F)cc1C(F)(F)F` [Example 352, 1-(4-cyclopropyl-3-fluorophenyl)-3-(4-((4-fluoro-2-(trifluoro-methyl)benzyl) (3,3,3-trifluoropropyl)amino)-2′-(1H-tetrazol-5-yl)-[1,1′-biphenyl]-3-yl)urea], the IC50 at Human IDO1 is 220 nM; at IDO, 90 nM.
As to `O=C(Nc1ccc(C2CC2)c(F)c1)Nc1cc(-c2ccccc2-c2nnn[nH]2)ccc1N(CCC(F)(F)F)Cc1ccc(OC(F)(F)F)cc1` [Example 353, 1-(2′-(1H-tetrazol-5-yl)-4-((4-(trifluoromethoxy)benzyl)(3,3,3-trifluoro-propyl)amino)-[1,1′-biphenyl]-3-yl)-3-(4-cyclopropyl-3-fluorophenyl)urea], the IC50 on Human IDO1 was 2.37 nM; at IDO, 5.1 nM.
For `Cc1ccc(NC(=O)Nc2cc(-c3cc(F)ccc3-c3nnn[nH]3)c(F)cc2N(CC(C)C)C2CCCCC2)cc1` [Example 355, 1-(4-(cyclohexyl(isobutyl)amino)-5′,6-difluoro-2′-(1H-tetrazol-5-yl)-[1,1′-biphenyl]-3-yl)-3-(p-tolyl)urea] the same measures were 3.29 nM and 2.37 nM.
Take `C=CC(c1ccccc1)c1cc(-c2ccccc2-c2nnn[nH]2)cc(NC(=O)Nc2ccccc2F)c1NCC(C)C` (stereo not shown) [Example 357, 1-(2-fluorophenyl)-3-(4-(isobutylamino)-5-(1-phenylallyl)-2′-(1H-tetrazol-5-yl)-[1,1′-biphenyl]-3-yl)urea]: the IC50 amounted to 320 nM on Human IDO1 and 40 nM on IDO.
As for `C=CC(c1ccccc1)c1cc(-c2ccccc2-c2nnn[nH]2)cc(NC(=O)Nc2ccc(C)cc2)c1NCC(C)C` (stereo not shown) [Example 358, 1-(4-(isobutylamino)-5-(1-phenylallyl)-2′-(1H-tetrazol-5-yl)-[1,1′-biphenyl]-3-yl)-3-(p-tolyl)urea], the values for the IC50 on Human IDO1 and against IDO were 350 nM and 20 nM, respectively.
Consider `Cc1ccc(NC(=O)Nc2cc(-c3ccccc3-c3nnn[nH]3)ccc2N2CCCc3ccccc32)cc1` [Example 361, 1-(4-(3,4-Dihydroquinolin-1(2H)-yl)-2′-(1H-tetrazol-5-yl)-[1,1′-biphenyl]-3-yl)-3-(p-tolyl)urea], for which the IC50 came out at 220 nM at Human IDO1 and 110 nM against IDO.
Take `Cc1ccc(NC(=O)Nc2cc(-c3cc(F)ccc3C(=O)O)ccc2N2CCCc3ccccc32)cc1` [Example 373, 4′-(3,4-Dihydroquinolin-1(2H)-yl)-5-fluoro-3′-(3-(p-tolyl)ureido)-[1,1′-biphenyl]-2-carboxylic acid]: the IC50 at Human IDO1 stood at 4000 nM; against IDO, 3340 nM.
On to `Cc1ccc(NC(=O)Nc2cc(-c3ccccc3C(=O)O)ccc2N(CC(C)C)C2CCOCC2)cc1` [Example 378], for which the half-maximal inhibitory concentration (IC50) at Human IDO1 turned out to be 70 nM; against IDO, 60 nM.
